The values below come from US5574062A, “Coumarin derivative and use thereof” (Morinaga Milk Industry Co., Ltd., priority 1993, dated 1996).

Like-named read-outs stand apart in the source and are kept apart here.

Series [1] deals with 12-lipoxygenase. The conditions noted are these: known compound used as lead; cited from earlier work.
In another series the target is T1, 5-lipoxygenase (Rattus norvegicus, UniProt P12527).
T1 construct: host or cells: RBL-1 (rat basophilic leukemia cells)
T1 sequence (P12527 1-673): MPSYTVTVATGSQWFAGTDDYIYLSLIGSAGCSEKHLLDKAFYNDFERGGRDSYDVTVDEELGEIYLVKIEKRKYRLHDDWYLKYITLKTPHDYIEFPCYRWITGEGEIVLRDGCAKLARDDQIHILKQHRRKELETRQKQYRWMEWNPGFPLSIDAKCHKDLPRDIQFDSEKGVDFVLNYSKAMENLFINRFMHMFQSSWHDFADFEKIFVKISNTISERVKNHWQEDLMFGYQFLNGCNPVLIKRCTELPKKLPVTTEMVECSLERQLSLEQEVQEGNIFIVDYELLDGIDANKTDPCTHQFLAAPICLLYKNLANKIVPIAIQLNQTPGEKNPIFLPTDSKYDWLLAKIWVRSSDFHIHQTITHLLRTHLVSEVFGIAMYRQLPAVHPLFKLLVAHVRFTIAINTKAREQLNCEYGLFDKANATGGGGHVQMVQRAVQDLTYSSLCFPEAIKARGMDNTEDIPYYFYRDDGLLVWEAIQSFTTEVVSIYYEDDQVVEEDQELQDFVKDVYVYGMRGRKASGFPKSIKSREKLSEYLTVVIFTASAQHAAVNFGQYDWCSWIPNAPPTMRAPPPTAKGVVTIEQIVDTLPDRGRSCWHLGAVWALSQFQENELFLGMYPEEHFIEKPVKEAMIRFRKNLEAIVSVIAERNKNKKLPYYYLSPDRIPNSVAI
The experiment in a line: 5-lipoxygenase inhibition assay (RBL-1 supernatant, arachidonic acid, HPLC of 5-HETE). The class given is biochemical, rat (basophilic leukemia cells RBL-1, ATCC CRL1378). As to the method:
Rat basophilic leukemia cells (RBL-1, ATCC CRL1378) were cultured in Dulbecco modified Eagle's medium containing 10% new-born bovine serum.
Cultured cells were collected and washed twice with a 50 mM Tris-buffered saline (containing 154 mM sodium chloride, pH: 7.4, hereinafter described as TBS). The cell suspension (4×10^7 cells/ml) was then sonicated and centrifuged at 10,000×g for 10 minutes.
The resultant supernatant was used to prepare an assay solution.
To an aliquot (15 μl) of the enzyme solution (40 mU/ml equivalent) was added 185 μl of TBS, 50 μl of a 2 mM adenosine triphosphate in TBS, 50 μl of a 12 mM calcium chloride in TBS, 1 μl of a 3 mM indomethacin in ethanol solution, 1 μl of an aqueous 300 mM reduced glutathione solution, and 3 μl of varied concentrated test compounds solution in ethanol. The resultant mixture was incubated at 37° C. for 5 minutes. Subsequently, 3 μl of a 2.5 mM arachidonic acid solution in ethanol was added to incubate the mixture for 2 minutes at 37° C. The reaction was ceased by the addition of 600 μl of methanol. After being centrifuged at 10,000×g for 5 minutes, 5-hydroxyeicosatetraenoic acid recovered in the supernatant was separated with a reverse phase high-performance liquid chromatography equipped with a C-18 column and measured the absorption of diene at 234 nm to quantify the activity of the enzyme.
Using the compounds of the present invention prepared in the same manner as in Examples 1-30, and Examples 33-36 as test samples and known baicalein (purchased from Wako Junyaku Kogyo) represented by the following formula 30 as a control: [drawing 34] the tests were performed for dose dependent inhibition to estimate IC50 values
It was prepared in the same method as in Test Example 2.
They were measured in the same method as in Test Example 2.

The target in series [2] is T2, 12-lipoxygenase (Rattus norvegicus, UniProt F1LQ70).
T2 construct: The platelets were then sonicated at 4° C. and centrifuged at 100,000×g for 30 minutes to obtain a supernatant as a 12-lipoxygenase enzyme solution; from tissue; host or cells: Sprague Dawley rat platelets (from aortic blood), sonicated, 100,000 x g supernatant
T2 sequence (F1LQ70 1-663): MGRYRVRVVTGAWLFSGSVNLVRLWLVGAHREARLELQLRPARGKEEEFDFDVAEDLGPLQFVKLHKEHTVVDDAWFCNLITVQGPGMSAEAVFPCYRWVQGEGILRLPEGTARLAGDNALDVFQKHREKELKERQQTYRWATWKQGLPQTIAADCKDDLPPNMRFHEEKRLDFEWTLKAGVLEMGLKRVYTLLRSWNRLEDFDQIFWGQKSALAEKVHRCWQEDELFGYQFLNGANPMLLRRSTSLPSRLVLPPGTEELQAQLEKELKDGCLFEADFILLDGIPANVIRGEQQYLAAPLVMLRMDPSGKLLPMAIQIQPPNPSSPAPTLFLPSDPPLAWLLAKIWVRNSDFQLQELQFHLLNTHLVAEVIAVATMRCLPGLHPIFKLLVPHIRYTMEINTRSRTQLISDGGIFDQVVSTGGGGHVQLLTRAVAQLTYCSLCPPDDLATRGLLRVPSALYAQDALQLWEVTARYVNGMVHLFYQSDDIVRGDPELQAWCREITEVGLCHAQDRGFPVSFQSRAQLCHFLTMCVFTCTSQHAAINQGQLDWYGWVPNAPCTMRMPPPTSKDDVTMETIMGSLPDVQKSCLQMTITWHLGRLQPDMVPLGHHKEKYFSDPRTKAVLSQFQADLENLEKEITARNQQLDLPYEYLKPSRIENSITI
Put plainly: 12-lipoxygenase inhibition assay (rat platelet supernatant, arachidonic acid, HPLC of 12-HETE). Type of series: biochemical, Sprague Dawley male rat (platelets). As to the method: (§1) A Sprague Dawley male rat was anesthetized with ether and bled from abdominal aorta using a syringe filled with about one-tenth volume of 3.8% sodium citrate. Blood was centrifuged at 180×g for 15 minutes at room temperature to pellet sanguineous platelet blood plasma. The resultant supernatant was again centrifuged at 1800×g for 10 minutes at 4° C. The pelleted platelets were rinsed twice with a washing buffer (50 mM Tris-hydrochloric acid buffer containing 154 mM sodium chloride and 2 mM EDTA, pH: 7.4). The platelets were then suspended in one-twentieth volume of a resuspension buffer (50 mM Tris-hydrochloric acid buffer containing 154 mM sodium chloride and 5.5 mM glucose, pH: 7.4). The platelets were then sonicated at 4° C. and centrifuged at 100,000×g for 30 minutes to obtain a supernatant as a 12-lipoxygenase enzyme solution.
(§2) The enzyme solution described above was diluted with the resuspension buffer above mentioned to prepare an assay solution so as to include about 2 mU/ml of 12-lipoxygenase. To an aliquot (300 μl) of the assay solution was added 1 μl of a 3 mM indomethacin-ethanol solution, 1 μl of an aqueous 300 mM reduced-glutathione solution, and 3 μl of varied concentrated test compounds solution in ethanol. The resultant mixture was incubated at 37° C. for 5 minutes. Subsequently, 3 μl of a 2.5 mM arachidonic acid solution in ethanol was added to incubate with for another 5 minutes at 37° C., then the reaction was ceased by the addition of 600 μl of methanol. After being centrifuged at 10,000×g for 5 minutes, 12-hydroxyeicosatetraenoic acid recovered in the supernatant was separated with a reverse phase high-performance liquid chromatography equipped with a C-18 column and measured the absorption of diene at 234 nm to quantify the activity of 12-lipoxygenase.
(§3) As test compounds were used the compounds of the present invention prepared in the same methods as in Example 4, Example 5 and Example 8 and the compounds prepared in the same methods as in Comparative Examples 1-5, and as a control was used esculetin (purchased from Tokyo Kasei), a known compound represented by the following formula: [drawing 33] and the test was conducted at varied concentrations.
(§4) The enzyme solution was prepared according to the same manner as in Test Example 1.
(§5) The inhibition assay was performed according to the same method as described in Test Example 1 except that the same samples used in measurement of the 5-lipoxygensase activity were used to estimate IC50 values. […]
(§6) They were measured in the same method as in Test Example 1.

Series [3] relates to 12-lipoxygenase. The series is described as above. The class given is biochemical, Sprague Dawley male rat (platelets). The conditions noted are these: comparative tests by the inventors. The method, then: as §1, §2, §3, §4, §5, §6
Series [4] concerns esterases present in the enzyme solution. Put plainly: Formation of deacylated compounds by esterases in rat platelet enzyme solution (HPLC). The conditions noted are these: resuspension buffer instead of the enzyme solution. Type of series: in vitro ADME, rat (platelets). As to the method: (§7) The test was performed to examine whether or not deacylated compounds would be formed due to esterases present in the enzyme solution when the compounds in the third embodiment according to the present invention were treated with the same enzyme solution as in Test Example 3.
(§8) The enzyme solution was prepared according to the same procedure as described in Test Example 1.
(§9) One ml of the above mentioned enzyme solution was diluted with 11 ml of a resuspension buffer. To an aliquot (300 μl) of this enzyme solution was added 3 μl of a 1.0×10^-3 M test compound solution in dimethyl sulfoxide. The mixture was incubated at 37° C. for an indicated time, then the reaction was ceased by the addition of 1 ml of acetonitrile. Twenty μl of the above mixture was subjected to reverse phase high-performance liquid chromatography equipped with a C-18 column to quantify the amount of deacylated products. As a control, a test using 300 μl of the resuspension buffer solution mentioned above instead of the enzyme solution was also performed.
(§10) Conditions of reverse phase high-performance liquid chromatography:
(§11) Column: Superspher RP-18(e) (purchased from Merck), 4.0 mm in diameter, 125 mm in length
(§12) Flow velocity: 1.0 ml/minute
(§13) Eluent: Acetonitrile containing 50 mM NaClO4 and 50 mM orthophosphate-water (55:45)
(§14) Column temperature: 30° C.
(§15) Calibration: Absorbance of 280 nm
(§16) The results of the test upon the compounds of Example 40 (Formula 43b) and Example 57 (Formula 74b) of the compounds according to the present invention will be shown. Since both the compounds of Example 40 (Formula 43b) and Example 57 (Formula 74b) are thought to be converted into the compound of Referential Example 8 (Formula 34b) through deacylation, the retention time of the compound of Referential Example 8 was checked strictly under the employed conditions with reverse phase high-performanceliquid chromatography mentioned above (retention time: 2.49 minutes) and a calibration curve of the compound was made using authentic sample of Referential Example 8.

Experiment in series [5]: as above
The conditions noted are these: rat, platelet enzyme solution, 37° C., enzyme solution, read-out: conversion ratio to Formula 34b. The class given is in vitro ADME, rat (platelets). As to the method: as §7, §8, §9, §10, §11, §12, §13, §14, §15, §16

Where [6] appears, read: Test Example 2, Table 2, read-out: IC50 value of 5-lipoxygenase.
Where [7] appears, read: Test Example 2, Table 2, read-out: IC50 value of 12-lipoxygenase.
The mark [8] stands for this setting: Test Example 5, Table 22, read-out: 5-Lipoxygenase inhibiting activity IC50 value.
[9] abbreviates: Test Example 5, Table 22, read-out: 12-Lipoxygenase inhibiting activity IC50 value.

As for `O=c1cc(-c2ccccc2)oc2cc(O)c(O)c(O)c12` [Baicalein, 5,6,7-trihydroxyflavone, reference compound], the “12-lipoxygenase inhibitory activity (in words)” value with 12-lipoxygenase [1] is reported as “relatively strong 12-lipoxygenase inhibitory activity”. Besides, the “selectivity (in words)” value in the series with 12-lipoxygenase [1] is listed as “relatively high selectivity”. The IC50 came out at 2400 nM against 5-lipoxygenase; 2400 nM at 5-lipoxygenase (read-out: IC50 value of 5-lipoxygenase, Test Example 2, Table 2); 42 nM on 12-lipoxygenase [2] (12-Lipoxygenase inhibiting activity IC50 value, Test Example 5, Table 22); 42 nM against 12-lipoxygenase [2] (12-lipoxygenase inhibiting activities of deacylated compounds (IC50 values), Test Example 3, Table 11, value belongs to the deacylated compound); 42 nM on 12-lipoxygenase [2] (IC50 value of 12-lipoxygenase, Test Example 2, Table 2); 42 nM on 12-lipoxygenase [2] (read-out: 12-Lipoxygenase inhibiting activity IC50 value, Test Example 5, Table 22).
In the case of `O=c1cc(-c2ccccc2)c2ccc(O)c(O)c2o1` [Comp. Example 3, reference compound], the IC50 at 5-lipoxygenase (text of Test Example 1, not shown in Table 1, read-out: 5-lipoxygenase inhibitory activity IC50 value) stood at 640 nM; at 12-lipoxygenase [2] (Test Example 1, Table 1 and text, read-out: 12-lipoxygenase IC50 value), 260 nM. Moreover, the “selectivity between 12-lipoxygenase and 5-lipoxygenase (in words)” value with 12-lipoxygenase [3] was “no selectivity was found”.
Turning to `O=c1oc2c(O)c(O)ccc2cc1-c1cc(Br)cs1` [Example 33, 3-(4-bromothiophen-2-yl)-7,8-dihydroxycoumarin], the IC50 at 5-lipoxygenase (setting [6]) was 360 nM; on 12-lipoxygenase [2] (setting [7]), 12 nM.
Turning to `O=c1oc2cc(O)c(O)cc2cc1-c1cc(Br)cs1` [Example 34, 3-(4-bromothiophen-2-yl)-6,7-dihydroxycoumarin], the half-inhibitory concentration (IC50) came to 150 nM on 5-lipoxygenase (setting [6]); 5.2 nM on 12-lipoxygenase [2] (setting [7]); 5.2 nM on 12-lipoxygenase [2] (Test Example 3, Table 11, value belongs to the deacylated compound, read-out: 12-lipoxygenase inhibiting activities of deacylated compounds (IC50 values)).
On to `Cc1ccc(-c2cc3ccc(O)c(O)c3oc2=O)o1` [Example 35], for which the IC50 at 5-lipoxygenase (setting [6]) worked out at 340 nM; at 12-lipoxygenase [2] (setting [7]), 15 nM.
With `Cc1ccc(-c2cc3cc(O)c(O)cc3oc2=O)o1` [Example 36, 3-(5-methylfuran-2-yl)-6,7-dihydroxycoumarin], the IC50 came out at 250 nM on 5-lipoxygenase (setting [6]) and 14 nM at 12-lipoxygenase [2] (setting [7]).
As to `CC(=O)Oc1cc2cc(-c3cccc(Cl)c3)c(=O)oc2cc1OC(C)=O` [Example 40], the “formation of deacylated compound in buffer control” value in series [4] is recorded as “no deacylated compound (Formula 34b) was formed”. Besides, the metabolised at 0.5 h, 10 µM in series [5] (reaction time 30 minute) is 70.7%. In series [5] (reaction time 60 minute), the metabolised at 1 h, 10 µM was determined as 72.8%.
`O=c1oc2c(O)c(O)ccc2cc1-c1ccc2ccccc2c1` [Example 61]: the IC50 on 5-lipoxygenase (setting [8]) amounted to 230 nM; on 12-lipoxygenase [2] (setting [9]) it was 34 nM.
The corresponding values for `O=c1oc2cc(O)c(O)cc2cc1-c1ccc2ccccc2c1` [Example 62] are 65 nM and 4.6 nM.
The corresponding values for `O=c1oc2c(O)c(O)ccc2cc1-c1csc2ccccc12` [Example 63] are 190 nM and 11 nM.
In the case of `O=c1oc2cc(O)c(O)cc2cc1-c1csc2ccccc12` [Example 64], the concentration for half-maximal inhibition (IC50) turned out to be 180 nM at 5-lipoxygenase (setting [8]) and 10 nM at 12-lipoxygenase [2] (setting [9]).

As a reminder, the IC50 is the midpoint of a concentration-inhibition curve.
